Assay results taken from ChEMBL document CHEMBL1157902, “New diterpenoids from Caesalpinia species and their cytotoxic activity” (Bioorg Med Chem Lett, 2010).

Tests used:
HeLa = experiment: Cytotoxicity against human HeLa cells by MTT assay; assay type: functional, cell-based
HL-60 = experiment: Cytotoxicity against human HL60 cells by MTT assay; assay type: functional, cell-based

Structure (SMILES)	Activity (HeLa)	IC50 (HeLa)	Activity (HL-60)	IC50 (HL-60)
CC(=O)O[C@@H]1[C@H]2[C@@H](C)c3ccoc3C[C@@H]2[C@@]2(C)CCCC(C)(C)[C@]2(O)[C@@H]1OC(=O)/C=C/c1ccccc1	Dose-dependent effect	33.4 µM	Dose-dependent effect	17.4 µM
C[C@H]1c2ccoc2C[C@H]2[C@H]1[C@@H](OC(=O)c1ccccc1)[C@@H](OC(=O)c1ccccc1)[C@@]1(O)C(C)(C)CCC[C@]21C	Dose-dependent effect	33.9 µM	Dose-dependent effect	19.8 µM
CC[C@@]1(O)C(=O)OCc2c1cc1n(c2=O)Cc2cc3ccccc3nc2-1 [CAMPTOTHECIN]	–	0.94 µM	–	0.59 µM
C[C@H]1C2=CC(=O)O[C@]2(O)C[C@H]2[C@H]1[C@@H](O)[C@@H](OC(=O)c1ccccc1)[C@@]1(O)C(C)(C)CCC[C@]21C	Dose-dependent effect	52.7 µM	Dose-dependent effect	44.9 µM
COc1cc([C@@H]2c3cc4c(cc3[C@@H](O[C@@H]3O[C@@H]5CO[C@@H](C)O[C@H]5[C@H](O)[C@H]3O)[C@H]3COC(=O)[C@H]23)OCO4)cc(OC)c1O [ETOPOSIDE]	–	8.93 µM	–	–
